Our source for the TGI values is PubChem BioAssay (NCI).

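Tested at 5 concentrations; 48 h exposure; 96-well plates; endpoints linearly interpolated, else capped at highest concentration. The concentration for full growth arrest is given as TGI.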

Some test systems named below: IGROV1 ovarian; HL-60(TB) leukemia; HCT-15 colon; MDA-MB-231 breast; HCC-2998 colon; NCI-H460 lung; SF-539 CNS; UACC-62 melanoma; DU-145 prostate; COLO 205 colon; MOLT-4 leukemia; SNB-19 CNS; SNB-75 CNS.
What all share (assay): NCI tumour cell line growth inhibition, 48 h

For `N=c1oc2ccc([N+](=O)[O-])cc2cc1C(=O)Nc1ccccn1`, the TGI is more than 100 µM with IGROV1 ovarian; more than 100 µM in the assay on HL-60(TB) leukemia; more than 100 µM in the assay with HCT-15 colon; 59.9 µM with MDA-MB-231 breast; more than 100 µM with HCC-2998 colon; more than 100 µM in the assay on NCI-H460 lung. Further, the TGI with SF-539 CNS, with UACC-62 melanoma, in the assay on DU-145 prostate, with COLO 205 colon, in the assay with MOLT-4 leukemia and with SNB-19 CNS was more than 100 µM each time. In the assay on SNB-75 CNS, this molecule came in with a TGI of more than 100 µM.

As to `CCn1c(SCC(=O)NNC(=S)Nc2ccc(Cl)cc2)nc2ccccc2c1=O`, the TGI in the assay with IGROV1 ovarian was more than 100 µM; in the assay on HL-60(TB) leukemia it was 84.9 µM; in the assay on HCT-15 colon, more than 100 µM; with MDA-MB-231 breast, more than 100 µM; in the assay on HCC-2998 colon, more than 100 µM; in the assay with NCI-H460 lung, more than 100 µM. In addition, the TGI with SF-539 CNS, in the assay with UACC-62 melanoma, with DU-145 prostate, in the assay on COLO 205 colon, with MOLT-4 leukemia and in the assay on SNB-19 CNS was more than 100 µM each time. In addition, the TGI in the assay on SNB-75 CNS is more than 100 µM.

For `CC(=O)[C@H]1[C@@H](OCc2ccccc2)O[N+]([O-])=C(C)[C@@H]1c1ccccc1`, the TGI was more than 100 µM with IGROV1 ovarian; 40.8 µM with HL-60(TB) leukemia; 75 µM in the assay on HCT-15 colon; more than 100 µM in the assay on MDA-MB-231 breast; more than 100 µM with HCC-2998 colon; more than 100 µM in the assay with NCI-H460 lung. For the same molecule, the TGI is 45.5 µM with SF-539 CNS; more than 100 µM with UACC-62 melanoma; more than 100 µM in the assay with DU-145 prostate; more than 100 µM in the assay with COLO 205 colon; 41.2 µM with MOLT-4 leukemia; more than 100 µM in the assay on SNB-19 CNS. This molecule also came in with a TGI in the assay on SNB-75 CNS of more than 100 µM.

For the molecule `c1csc(-c2cscc2-c2cccs2)c1`, the TGI in the assay with IGROV1 ovarian is more than 100 µM; in the assay with HL-60(TB) leukemia, more than 100 µM; in the assay on HCT-15 colon it was more than 100 µM; in the assay on MDA-MB-231 breast, more than 100 µM; with HCC-2998 colon, 82.6 µM; with NCI-H460 lung, more than 100 µM. The TGI in the assay with SF-539 CNS is 51.4 µM; in the assay on UACC-62 melanoma it was more than 100 µM; in the assay with DU-145 prostate it was 8.22 µM; in the assay on COLO 205 colon it was more than 100 µM; with MOLT-4 leukemia, more than 100 µM; in the assay with SNB-19 CNS, more than 100 µM. The TGI with SNB-75 CNS is more than 100 µM.

As to `O=C(O)c1cccc(S(=O)(=O)NN2C(=O)CSC2c2ccccc2Cl)c1` (stereo not given), the TGI in the assay with IGROV1 ovarian, with HL-60(TB) leukemia, with HCT-15 colon, in the assay on MDA-MB-231 breast, in the assay on HCC-2998 colon and in the assay on NCI-H460 lung was more than 100 µM in each case. The TGI in the assay on SF-539 CNS, with UACC-62 melanoma, in the assay on DU-145 prostate, with COLO 205 colon, in the assay with MOLT-4 leukemia and with SNB-19 CNS was more than 100 µM throughout. In the assay on SNB-75 CNS, this molecule came in with a TGI of more than 100 µM.

As to `O=C1CCCC(=O)N1n1c(Cc2ccc(Cl)cc2)n[nH]c1=O`, the TGI in the assay on IGROV1 ovarian, in the assay with HL-60(TB) leukemia, in the assay with HCT-15 colon, in the assay on MDA-MB-231 breast, in the assay on HCC-2998 colon and with NCI-H460 lung was more than 100 µM each time. Further, the TGI with SF-539 CNS, in the assay with UACC-62 melanoma, in the assay with DU-145 prostate, in the assay on COLO 205 colon, in the assay on MOLT-4 leukemia and with SNB-19 CNS was more than 100 µM throughout. This molecule displayed a TGI in the assay on SNB-75 CNS of more than 100 µM.

Regarding `C[C@]12CC[C@H]3[C@@H](CC=C4C[C@@H](O)CC[C@@]43C)[C@@H]1C[C@H](N1CCOCC1)[C@@H]2O`, the TGI in the assay with IGROV1 ovarian, in the assay with HL-60(TB) leukemia, in the assay with HCT-15 colon, in the assay with MDA-MB-231 breast, in the assay on HCC-2998 colon and with NCI-H460 lung was more than 100 µM in each case. Besides, the TGI in the assay on SF-539 CNS, in the assay on UACC-62 melanoma, in the assay on DU-145 prostate, in the assay with COLO 205 colon, in the assay on MOLT-4 leukemia and in the assay with SNB-19 CNS was more than 100 µM each time. The same molecule yielded a TGI with SNB-75 CNS of 97.4 µM.

As to `Cc1ccc(S(=O)(=O)Nn2c(C)cc3ccc(S(=O)(=O)Nc4ccccc4[N+](=O)[O-])cc3c2=O)cc1`, the TGI in the assay on IGROV1 ovarian, with HL-60(TB) leukemia, in the assay on HCT-15 colon, in the assay with MDA-MB-231 breast, with HCC-2998 colon and in the assay with NCI-H460 lung was more than 100 µM throughout. Further, the TGI in the assay with SF-539 CNS was more than 100 µM; in the assay on UACC-62 melanoma, more than 100 µM; in the assay on DU-145 prostate, more than 100 µM; in the assay on COLO 205 colon, 44.1 µM; with MOLT-4 leukemia, more than 100 µM; in the assay with SNB-19 CNS it was more than 100 µM. Moreover, in the assay on SNB-75 CNS, the TGI is more than 100 µM.

`CCSC1=C(C#N)C2(CCCCC2)C2=C(CC(C)(C)CC2=O)N1`: the TGI in the assay on IGROV1 ovarian is more than 100 µM; in the assay on HL-60(TB) leukemia, more than 100 µM; in the assay on HCT-15 colon, more than 100 µM; with MDA-MB-231 breast it was more than 100 µM; in the assay with HCC-2998 colon it was more than 100 µM; with NCI-H460 lung it was 21.2 µM. Besides, the TGI in the assay on SF-539 CNS was more than 100 µM; in the assay on UACC-62 melanoma, more than 100 µM; with DU-145 prostate it was 60.8 µM; in the assay on COLO 205 colon it was more than 100 µM; in the assay with MOLT-4 leukemia, more than 100 µM; in the assay with SNB-19 CNS, 76.2 µM. The TGI with SNB-75 CNS stood at 71.1 µM.

`N#CC12CC=C(c3ccccc3)N=C1NC(c1ccccc1)=CC2` (stereo not given): the TGI was more than 100 µM with IGROV1 ovarian; 50.5 µM in the assay on HL-60(TB) leukemia; more than 100 µM with HCT-15 colon; more than 100 µM in the assay on MDA-MB-231 breast; more than 100 µM in the assay on HCC-2998 colon; more than 100 µM in the assay with NCI-H460 lung. Further, the TGI was more than 100 µM with SF-539 CNS; more than 100 µM in the assay with UACC-62 melanoma; more than 100 µM in the assay on DU-145 prostate; more than 100 µM in the assay on COLO 205 colon; 55.1 µM in the assay on MOLT-4 leukemia; more than 100 µM in the assay on SNB-19 CNS. Moreover, the TGI in the assay with SNB-75 CNS is more than 100 µM.
